Data: paper PMC11879280, “Antimicrobial activity of peptoids against Metallo-β-lactamase-producing Klebsiella pneumoniae, Acinetobacter baumannii, Pseudomonas aeruginosa, and other WHO priority pathogens, including Candida auris” (Journal of Applied Microbiology, 2025)
In brackets after ≈: the same amount, converted by molar mass. Read-outs that look alike come from different tables or passages of the source. Square brackets hold non-standard residues; d marks the D form. Peptide text beside a SMILES is read from it. Nspe = C[C@H](NCC(=O)O)c1ccccc1; NDecylGly = CCCCCCCCCCNCC(=O)O; Nlys = NCCCCNCC(=O)O

Columns and labels:
[1] = system: C. auris CBS 10913; test: Sorbitol protection assay; type: cell-based, Candida auris; conditions: CBS10913
Description: Caspofungin served as a positive control for the assay (Leite et al. [2014]).

[2] = system: C. auris CBS12373 biofilm; test: Initial biofilm inhibition, MTT reduction assay; type: cell-based, Candida auris
[3] = system: MDR ESKAPE pathogens; conditions: ref Nielsen et al. [2022]; cited from earlier work
Description: TM8, TM15, and TM19 featured terminal alkyl tails of either N-decyl or N-tridecyl, while all of them contained chiral aromatic Nspe along with NLys residues. Similarly, TM2, TM4, TM12, TM14, and TM19 w ... || Lipopeptoids can self-assemble into micellar macromolecules due to the hydrophobic tail domains driven by the intermolecular hydrophobic interactions. […] In a ...

[4] = system: C. auris CBS10913; test: Membrane integrity by flow cytometry (SYTO 9 / PI); type: cell-based, Candida auris
Procedure: Afterwards, the cells were stained with SYTO 9 (7.5 µmol l^−1) and PI (30 µmol l^−1) for an additional 15 min in the dark at room temperature. Following washing, samples were then analysed for membrane integrity on a BD FACSymphony^TM A3, with a minimum of 10 000 events recorded per sample.

[5] = system: C. auris CBS 10913; test: Time-kill kinetics; type: cell-based, Candida auris; conditions: RPMI, 35°C, three independent runs
Procedure: Killing kinetics (time-kill) were evaluated as described previously (Lum et al. [2015]). […] At set intervals (0, 0.5, 1, 1.5, 2, 2.5, 3, 4, 5, 6, 12, and 24 h), 100 µl samples were serially diluted in PBS and plated on Sabouraud dextrose agar (SDA; Oxoid, UK) with 0.5% polysorbate 80 (Chem-supply, SA, Australia). CFUs were enumerated, with a yeast growth control processed similarly. Results were presented from three independent runs.

[6] = system: K. pneumoniae JIE2713; test: Checkerboard microdilution synergy test; type: cell-based, Klebsiella pneumoniae
Procedure: (§1) Then, 10 µl of bacteria (5 × 10^6 CFU ml^−1) or C. auris (2.5 × 10^4 CFU ml^−1) were added to each well, except for the sterility control well. […] The sterility control wells contained only MHB (or RPMI in case of C. auris), and the growth control contained 110 µl of microbial inoculum with no antimicrobials. Subsequently, the plates were incubated for 18- 24 hours at 36 ± 1 °C.
(§2) The FIC for each combination interaction was calculated as follows:
(§3) Then, the summation of FIC (ƩFIC) was calculated for each antimicrobial combination as follows: ƩFIC = FICA + FICB. […] All antimicrobial synergy experiments were repeated in at least two independent runs.

[7] = system: K. pneumoniae JIE2709; test: Checkerboard microdilution synergy test; type: cell-based, Klebsiella pneumoniae
Procedure: as §1, §2, §3

[8] = as low as; ref Nielsen et al. [2022]; cited from earlier work
Description: Lipopeptoids can self-assemble into micellar macromolecules due to the hydrophobic tail domains driven by the intermolecular hydrophobic interactions. […] In a ...

[9] = system: C. auris CBS12373 biofilm; test: Anti-adherence (biofilm prevention), MTT reduction assay; type: cell-based, Candida auris
Procedure: Finally, 3-(4,5-Dimethylthiazol 2-yl)-2,5-diphenyltetrazolium bromide (MTT) reduction assay was performed to observe the metabolic activities of C. auris.

[10] = system: C. auris CBS12373 biofilm; test: Initial biofilm inhibition, crystal violet assay; type: cell-based, Candida auris; conditions: crystal violet staining
Procedure: Another set of experiments was conducted under similar conditions similar to those used for MTT assay.

[11] = system: C. auris CBS12373 biofilm; type: cell-based, Candida auris; conditions: for Mature biofilm inhibition, blank corrected 570 nm, av. of readings: MTT absorbance
Procedure: To assess disruption of mature biofilms, 2 × 10^5 cells were cultured for 2 h in 96-well flat bottom microtiter plates at 37°C, washed, then incubated for 48 h in fresh media to form mature biofilm. […] For each activity test, the metabolic activities of the yeast cells in biofilms were measured by MTT reduction assay after washing the disrupted biofilm with PBS (Srivastava and Ahmad [2020]).

## CCCCCCCCCCNCC(=O)N(CCCCN)CC(=O)N(CC(=O)N(CC(=O)N(CCCCN)CC(=O)N(CC(=O)N(CC(N)=O)[C@@H](C)c1ccccc1)[C@@H](C)c1ccccc1)[C@@H](C)c1ccccc1)[C@@H](C)c1ccccc1 [TM8] (H-[NDecylGly][Nlys][Nspe][Nspe][Nlys][Nspe][Nspe]-NH2)
[1]
  MIC in the presence of sorbitol: 7.8 µg/mL
  MIC without sorbitol: 7.8 µg/mL (≈ 6.99 µM)
[2]
  Biofilm tolerance factor-inhibition (MBIC/MIC): 2
[3]
  MIC against MDR ESKAPE pathogens: < 13 µg/mL
[4]; TM8 at its MIC or 1% Triton X-100, 90 min, PBS control 0.2%
  Dead cells: 3.9%
[4]; TM8 at its MIC, 90 min, 37°C, PBS, PBS control 51.7%
  SYTO 9 fluorescent signal of C. auris: 25.5%
[4]; TM8 at its MIC, 90 min, PBS control 0.7%
  Cells doubly stained with SYTO 9 and PI: 21.5%
[5]; 1× MIC
  Time to 3-log reduction: ≤ 6 h
  Time to complete killing of the yeast cells: ≤ 12 h
[5]; 4× MIC
  Time to fungicidal activity: ≤ 2 h
[6]
  MIC of TM8 (alone, checkerboard): 15.625 µg/mL
[6]; TM8 with Aztreonam
  FICTM8: 0.5
  MF of TM8 (modulation factor): 2
  MIC of TM8 + DrugB: 7.8125 µg/mL
  ƩFIC: 1
[6]; TM8 with Cefotaxime
  FICTM8: 0.5
  MF of TM8 (modulation factor): 2
  ƩFIC: 1
[6]; TM8 with Ciprofloxacin
  FICTM8: 0.25
  MF of TM8 (modulation factor): 4
  ƩFIC: 0.273
[6]; TM8 with Gentamicin
  FICTM8: 0.5
  MF of TM8 (modulation factor): 2
  ƩFIC: 1
[7]
  MIC of TM8 (alone, checkerboard): 15.625 µg/mL
[7]; TM8 with Cefotaxime
  FICTM8: 0.5
  MF of TM8 (modulation factor): 2
  Outcome: Additive (Additive if 0.5<ƩFIC ≤ 1)
  ƩFIC: 1
[7]; TM8 with Ciprofloxacin
  FICTM8: 0.5
  MF of TM8 (modulation factor): 2
  Outcome: Additive (Additive if 0.5<ƩFIC ≤ 1)
  ƩFIC: 1
[7]; TM8 with Meropenem
  FICTM8: 0.5
  MF of TM8 (modulation factor): 2
  ƩFIC: 0.625
[8]
  Concentration at which self-assembly into an ellipsoidal form is found: 1000 ng/mL
[9]
  Biofilm tolerance factor-prevention (BPC/MIC): 8
[9]; 2 h adhesion with agent, 48 h growth, ≥90% reduction
  Anti-adherence (BPC): 125 µg/mL
[10]
  MBIC for initial biofilm: 31.25 µg/mL
[11]; C. auris CBS12373, MTT
  Biofilm tolerance factor-eradication (MBEC/MIC): 4
[11]; CBS12373 biofilm, 48 h
  Mature biofilm MBEC: 62.5 µg/mL
[11]; agent at 0.976562 (growth control 1.115)
  Mature biofilm inhibition, blank corrected 570 nm, av. of readings: 1.684
[11]; agent at 1.95312 (growth control 1.115)
  Mature biofilm inhibition, blank corrected 570 nm, av. of readings: 1.307
[11]; agent at 3.90625 (growth control 1.115)
  Mature biofilm inhibition, blank corrected 570 nm, av. of readings: 0.871
[11]; agent at 7.8125 (growth control 1.115)
  Mature biofilm inhibition, blank corrected 570 nm, av. of readings: 0.456
[11]; agent at 15.625 (growth control 1.115)
  Mature biofilm inhibition, blank corrected 570 nm, av. of readings: 0.49
[11]; agent at 31.25 (growth control 1.115)
  Mature biofilm inhibition, blank corrected 570 nm, av. of readings: 0.129
[11]; agent at 62.5 (growth control 1.115)
  Mature biofilm inhibition, blank corrected 570 nm, av. of readings: 0
[11]; agent at 125 (growth control 1.115)
  Mature biofilm inhibition, blank corrected 570 nm, av. of readings: -0.0001
[11]; agent at 250 (growth control 1.115)
  Mature biofilm inhibition, blank corrected 570 nm, av. of readings: 0.02
[11]; agent at 500 (growth control 1.115)
  Mature biofilm inhibition, blank corrected 570 nm, av. of readings: 0.02
